Consider 15 molecules from patent US20220227796A1, “EGFR INHIBITORS, COMPOSITIONS AND METHODS THERE OF” (Betta Pharmaceuticals Co., Ltd., priority 2019, published 2022).

Read-outs that look alike come from different tables or passages of the source.

For assay [1], the system named is H1975(L858R/T790M). Kind of assay: H1975 cells proliferation assay. The format is cell-based. Conditions: for IC50: Homo sapiens, read-out: H1975 IC50. The method, then: (§1) Test 3 H1975 and HCC827 Cells Proliferation Assay
(§2) a) The medium was preheated in a 37° C. water bath in advance.
(§3) b) Remove the cryogenic vials from the liquid nitrogen tank, quickly put it into a 37° C. water bath, and completely melt it in 1 min.
(§4) c) Transfer the cell suspension to a 15 mL centrifuge tube containing 8 mL medium, centrifuge 1000 rpm, 5 min.
(§5) d) Discard the supernatant, resuspend the cells in 1 mL medium, and transfer to a 75 cm^2 flask containing 15 mL medium, culture the cells in an incubator at 37° C., 5% CO2.
(§6) b) Collect cell to a 15 mL centrifuged tube, centrifuge at 1000 rpm for 5 min. Discard the supernatant, count, and make the cell density at 1×10^4 cells/mL, then place it in a 37° C., 5% CO2 incubator.
(§7) b) The above compound solution was diluted 1:20 times with culture medium to prepare a 10 fold working solution;
(§8) a) Take cells in log phase growth, centrifuge at 1000 rpm for 5 min, then resuspend the cells with culture medium, then count cells;
(§9) b) Cells were seeded to 96-well cell culture plate with density at 2000 cells/well (suitable for H1975 cell) and at 2500 cells/well (suitable for HCC827 cell);
(§10) The blank control well was a culture medium (0.5% DMSO);
(§11) b) The cells were incubated for an additional 72 h in the incubator.
(§12) a) Remove the 96-well cell culture plate and add 50 μl of CTG reagent (CellTiter Glo kit, promega, Cat #G7573).
(§13) b) Plate was shaked for 2 min and then let it cool for 10 min at room temperature.
(§14) c) The Luminescence signal value was read using a PerkinElmer reader.
(§15) Experimental Data Analysis
(§16) Data were analyzed using GraphPad Prism 6.0 software to obtain a fitted curve of compound activity.
(§17) Y=Bottom+(Top−Bottom)/(1+10^((Log IC50−X)*HillSlope));
(§18) The cells proliferation assay results are expressed with IC50, shown as Table 2.

In assay [2] the test system is HCC827(Δ19del). Kind of assay: HCC827 cells proliferation assay. The format is cell-based. As to conditions: Homo sapiens, read-out: HCC827 IC50. As to the method:
as §1, §2, §3, §4, §5, §6, §7, §8, §9, §10, §11, §12, §13, §14, §15, §16, §17, §18

Assay [3] has as its target EGFR Δ19del/T790M/C797S (Homo sapiens, UniProt P00533, T790M/C797S, form not given). Description: Kinase assay (mobility shift) for EGFR Δ19del/T790M/C797S. The class given is biochemical. As to conditions: read-out: EGFR Δ 19del/T790M/C797S IC50. The method, then:
(§19) Enzyme reaction protocol are as followed:
(§20) 1. Preparing 1* Kinase buffer as followed.
(§21) 2. Preparing Compound Concentration Gradient: Compounds were tested at a concentration of 300 nM, diluted to 100-fold final concentration in 100% DMSO solution in 96-well plates, and compounds were diluted 3 times with Precision, 10 concentrations. Each concentration of the compound was then further diluted to a 5-fold final concentration of the intermediate dilution solution using 1* Kinase buffer.
(§22) 3. 5 μL of each of the prepared intermediate dilution compounds was separately added to the compound wells of the 384-well plate, and each concentration was tested for duplicate wells; 5 μL of 5% DMSO was added to the negative control wells and the positive control wells, respectively.
(§23) 4. 2.5-fold final concentration of the kinase solution was prepared using 1*Kinase buffer.
(§24) 6. Centrifuge at 1000 rpm for 30 seconds, shake the reaction plate and incubate for 10 minutes at room temperature.
(§25) 8. 10 μL of a 2.5-fold final concentration of a mixed solution of ATP and a substrate was added to initiate the reaction.
(§26) 9. Centrifuge the 384-well plate at 1000 rpm for 30 seconds, mix by shaking, and incubate at room temperature for the corresponding time.
(§27) 10. Add 30 μL of the stop solution to stop the kinase reaction, centrifuge at 1000 rpm for 30 seconds, and mix by shaking.
(§28) 11. Read the conversion rate with Caliper EZ Reader.
(§29) Convert conversion values to inhibition values:
(§30) Percent inhibition=(max−conversion % sample)/(max−min)*100.
(§31) “max” stands for the mean value of the positive control well ratio; “min” stands for the mean value of the negative control well; conversion % sample: sample conversion reading.
(§32) Fit the data in log(inhibitor) vs. response Variable slope of GraphPad Prism 5 to obtain IC50 values.
(§33) Equation used is: Y=Bottom+(Top−Bottom)/(1+(IC50/X)*HillSlope)

Assay [4] concerns the target EGFR L858R (Homo sapiens, UniProt P00533, L858R). Description: Kinase assay (mobility shift) for EGFR L858R. The class given is biochemical. As to the method:
as §19, §20, §21, §22, §23, §24, §25, §26, §27, §28, §29, §30, §31, §32, §33

For assay [5], the target named is EGFR T790M/L858R (Homo sapiens, UniProt P00533, L858R/T790M). Kind of assay: Kinase assay (mobility shift) for EGFR T790M/L858R. The class given is biochemical. As to the method: as §19, §20, §21, §22, §23, §24, §25, §26, §27, §28, §29, §30, §31, §32, §33
Where [6] appears, read: NCI-H1975, cell proliferation, 72 h, CellTiter Glo, class symbols.
The mark [7] stands for this setting: HCC827, cell proliferation, 72 h, CellTiter Glo, class symbols.

EGFR Δ19del/T790M/C797S, sequence (P00533 with tags, fused parts or gaps DEL746-750/T790M/C797S, form open): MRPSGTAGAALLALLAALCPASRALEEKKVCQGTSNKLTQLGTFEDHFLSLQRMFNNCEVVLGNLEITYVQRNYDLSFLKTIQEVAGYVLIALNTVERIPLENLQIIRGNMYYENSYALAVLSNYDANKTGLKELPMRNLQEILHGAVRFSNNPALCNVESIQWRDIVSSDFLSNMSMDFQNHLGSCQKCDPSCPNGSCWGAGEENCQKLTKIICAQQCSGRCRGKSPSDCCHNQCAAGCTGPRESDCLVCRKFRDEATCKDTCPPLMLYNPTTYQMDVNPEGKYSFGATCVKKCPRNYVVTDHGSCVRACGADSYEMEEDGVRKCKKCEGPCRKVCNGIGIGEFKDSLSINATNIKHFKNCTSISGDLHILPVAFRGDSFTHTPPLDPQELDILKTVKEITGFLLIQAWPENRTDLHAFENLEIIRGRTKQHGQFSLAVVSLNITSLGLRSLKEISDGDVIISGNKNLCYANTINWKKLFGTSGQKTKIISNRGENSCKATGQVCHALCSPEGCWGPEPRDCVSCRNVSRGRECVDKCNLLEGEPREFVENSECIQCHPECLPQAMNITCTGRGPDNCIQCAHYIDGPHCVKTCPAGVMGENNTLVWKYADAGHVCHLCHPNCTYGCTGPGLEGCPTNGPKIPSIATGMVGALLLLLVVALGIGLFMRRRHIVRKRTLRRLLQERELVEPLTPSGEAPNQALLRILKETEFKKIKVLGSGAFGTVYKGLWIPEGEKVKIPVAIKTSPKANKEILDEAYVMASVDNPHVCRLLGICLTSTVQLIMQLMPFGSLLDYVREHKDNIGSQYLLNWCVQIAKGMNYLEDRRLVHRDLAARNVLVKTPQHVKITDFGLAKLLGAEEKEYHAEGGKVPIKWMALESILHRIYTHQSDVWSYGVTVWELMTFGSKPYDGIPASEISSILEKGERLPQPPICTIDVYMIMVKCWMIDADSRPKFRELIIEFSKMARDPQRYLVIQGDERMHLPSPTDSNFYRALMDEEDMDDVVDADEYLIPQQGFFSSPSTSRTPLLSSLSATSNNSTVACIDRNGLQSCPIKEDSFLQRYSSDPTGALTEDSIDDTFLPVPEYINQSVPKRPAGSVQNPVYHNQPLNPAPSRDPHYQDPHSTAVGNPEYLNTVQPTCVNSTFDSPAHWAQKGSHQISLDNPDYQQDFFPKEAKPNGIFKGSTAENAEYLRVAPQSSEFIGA
EGFR L858R, sequence (P00533 25-1210 L858R): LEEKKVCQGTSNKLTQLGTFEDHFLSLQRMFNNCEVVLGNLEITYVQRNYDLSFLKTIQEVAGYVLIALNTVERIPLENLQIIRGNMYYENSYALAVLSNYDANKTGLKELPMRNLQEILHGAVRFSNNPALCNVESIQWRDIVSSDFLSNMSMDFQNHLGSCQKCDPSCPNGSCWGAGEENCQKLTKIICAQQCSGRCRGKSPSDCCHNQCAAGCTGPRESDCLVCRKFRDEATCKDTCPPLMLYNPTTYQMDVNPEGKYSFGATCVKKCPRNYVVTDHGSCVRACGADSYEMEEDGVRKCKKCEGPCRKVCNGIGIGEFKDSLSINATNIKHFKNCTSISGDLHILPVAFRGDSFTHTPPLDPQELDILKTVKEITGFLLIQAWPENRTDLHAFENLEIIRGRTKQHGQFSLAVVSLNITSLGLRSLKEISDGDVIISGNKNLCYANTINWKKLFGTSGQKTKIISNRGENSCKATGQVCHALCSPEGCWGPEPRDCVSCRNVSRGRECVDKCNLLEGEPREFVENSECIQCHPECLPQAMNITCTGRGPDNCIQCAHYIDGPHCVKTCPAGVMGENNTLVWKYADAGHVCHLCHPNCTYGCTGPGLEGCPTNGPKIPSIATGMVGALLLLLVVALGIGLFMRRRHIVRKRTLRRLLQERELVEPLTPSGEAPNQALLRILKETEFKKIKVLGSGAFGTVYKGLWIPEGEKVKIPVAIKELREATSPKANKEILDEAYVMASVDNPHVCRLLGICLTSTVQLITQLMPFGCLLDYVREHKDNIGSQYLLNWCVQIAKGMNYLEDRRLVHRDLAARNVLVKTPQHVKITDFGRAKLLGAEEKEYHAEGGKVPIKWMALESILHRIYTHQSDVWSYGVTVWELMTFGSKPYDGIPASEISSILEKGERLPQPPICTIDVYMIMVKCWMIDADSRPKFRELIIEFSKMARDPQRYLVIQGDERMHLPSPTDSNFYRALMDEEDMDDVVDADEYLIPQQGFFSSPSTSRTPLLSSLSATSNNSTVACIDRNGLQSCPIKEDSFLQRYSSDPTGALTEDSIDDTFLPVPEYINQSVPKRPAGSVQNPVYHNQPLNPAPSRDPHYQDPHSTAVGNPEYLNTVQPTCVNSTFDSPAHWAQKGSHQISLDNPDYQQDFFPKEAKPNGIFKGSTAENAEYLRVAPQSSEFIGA
EGFR T790M/L858R, sequence (P00533 25-1210 T790M/L858R): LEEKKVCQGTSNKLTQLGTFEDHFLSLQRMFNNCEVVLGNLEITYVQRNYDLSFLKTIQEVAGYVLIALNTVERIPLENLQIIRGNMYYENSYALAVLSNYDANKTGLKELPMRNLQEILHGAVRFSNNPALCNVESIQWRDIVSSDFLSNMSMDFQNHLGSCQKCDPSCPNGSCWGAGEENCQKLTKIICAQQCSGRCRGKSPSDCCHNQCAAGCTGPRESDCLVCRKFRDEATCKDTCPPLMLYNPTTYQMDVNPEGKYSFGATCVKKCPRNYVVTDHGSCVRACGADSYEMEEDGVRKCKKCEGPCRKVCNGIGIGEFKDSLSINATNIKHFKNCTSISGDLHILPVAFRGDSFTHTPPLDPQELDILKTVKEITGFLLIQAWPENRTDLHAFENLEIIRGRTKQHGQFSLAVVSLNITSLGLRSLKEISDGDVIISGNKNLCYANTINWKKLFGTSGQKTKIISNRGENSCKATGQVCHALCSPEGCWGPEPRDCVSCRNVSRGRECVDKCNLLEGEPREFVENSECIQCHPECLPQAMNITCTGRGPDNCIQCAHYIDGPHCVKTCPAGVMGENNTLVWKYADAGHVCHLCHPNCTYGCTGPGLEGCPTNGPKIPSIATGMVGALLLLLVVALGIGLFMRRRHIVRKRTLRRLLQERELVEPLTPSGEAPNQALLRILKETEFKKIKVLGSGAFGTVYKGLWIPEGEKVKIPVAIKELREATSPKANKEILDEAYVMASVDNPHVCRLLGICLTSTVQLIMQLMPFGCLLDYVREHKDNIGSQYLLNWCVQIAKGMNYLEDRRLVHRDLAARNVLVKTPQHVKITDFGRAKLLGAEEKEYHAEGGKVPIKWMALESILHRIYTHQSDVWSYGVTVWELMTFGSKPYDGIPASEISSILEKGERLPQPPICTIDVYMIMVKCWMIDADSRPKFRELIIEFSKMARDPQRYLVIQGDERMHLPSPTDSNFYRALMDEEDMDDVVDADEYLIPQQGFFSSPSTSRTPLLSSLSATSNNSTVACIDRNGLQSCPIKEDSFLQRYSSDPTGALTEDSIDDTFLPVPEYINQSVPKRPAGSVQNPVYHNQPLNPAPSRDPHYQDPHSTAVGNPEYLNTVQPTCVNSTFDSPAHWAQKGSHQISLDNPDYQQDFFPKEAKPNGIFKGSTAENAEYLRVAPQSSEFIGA

In the case of `C=CC(=O)Nc1cc(Nc2nccc(-c3cn(C)c4ccccc34)n2)c(OC)cc1N(C)CCN(C)C` [Comparative compound B, reference compound], the IC50 in assay [1] (NCI-H1975, 72 h) was < 10 nM; in assay [2] (HCC827, 72 h), < 10 nM. Further, the “inhibition of double mutant (L858R/T790M)” value in assay [1] (summary in words of Table 2) was “higher inhibition”.
`C=CC(=O)Nc1cc(Nc2ncc(Cl)c(Nc3ccccc3P(C)(C)=O)n2)ccc1N1CC2(CCC(N(C)C)CC2)C1` [Compound 2, N-(5-((5-chloro-4-((2-(dimethylphosphoryl)phenyl)amino)pyrimidin-2-yl)amino)-2-(7-(dimethylamino)-2-azaspiro[3.5]nonan-2-yl)phenyl)acrylamide]: the results for the IC50 in assay [3], in assay [4] and in assay [5] were < 10 nM, 10 to 100 nM and < 10 nM, respectively.
On to `C=CC(=O)Nc1cc(Nc2ncc(Cl)c(Nc3ccccc3P(C)(C)=O)n2)ccc1N1CC2(CC(N(C)C)C2)C1` [Compound 3, N-(5-((5-chloro-4-((2-(dimethylphosphoryl)phenyl)amino)pyrimidin-2-yl)amino)-2-(6-(dimethylamino)-2-azaspiro[3.3]heptan-2-yl)phenyl)acrylamide], for which the values for the IC50 in assay [3], in assay [4] and in assay [5] were < 10 nM, 10 to 100 nM and < 10 nM, respectively.
With `C=CC(=O)Nc1cc(Nc2nccc(Nc3ccccc3P(C)(C)=O)n2)ccc1N1CCC2(CC1)CC(N(C)C)C2` [Compound 4, N-(2-(2-(dimethylamino)-7-azaspiro[3.5]nonan-7-yl)-5-((4-((2-(dimethylphosphoryl)phenyl)amino)pyrimidin-2-yl)amino)phenyl)acrylamide], the IC50 was < 10 nM in assay [3], 10 to 100 nM in assay [4] and < 10 nM in assay [5].
With `C=CC(=O)Nc1cc(Nc2ncc(Br)c(Nc3ccc4nccnc4c3P(C)(C)=O)n2)c(OC)cc1N1CCC(N2CCN(C)CC2)CC1` [Compound 13, N-(5-((5-bromo-4-((5-(dimethylphosphoryl)quinoxalin-6-yl)amino)pyrimidin-2-yl)amino)-4-methoxy-2-(4-(4-methylpiperazin-1-yl)piperidin-1-yl)phenyl)acrylamide], the IC50 in assay [1] (setting [6]) and in assay [2] (setting [7]) was 10 to 50 nM in each case.
For `C=CC(=O)Nc1cc(Nc2ncc(C)c(Nc3ccccc3P(C)(C)=O)n2)c(OC)cc1N1CCC(N2CCN(C)CC2)CC1` [Compound 22, N-(5-((4-((2-(dimethylphosphoryl)phenyl)amino)-5-methylpyrimidin-2-yl)amino)-4-methoxy-2-(4-(4-methylpiperazin-1-yl)piperidin-1-yl)phenyl)acrylamide], the IC50 in assay [3] is < 10 nM; in assay [4], 10 to 100 nM; in assay [5], < 10 nM; in assay [2] (setting [7]), < 10 nM.
Take `C=CC(=O)Nc1cc(Nc2ncc(Cl)c(Nc3ccccc3P(C)(C)=O)n2)c(OC)cc1N1CCC(N2CCN(C)CC2)CC1` [Compound 24, N-(5-((5-chloro-4-((2-(dimethylphosphoryl)phenyl)amino)pyrimidin-2-yl)amino)-4-methoxy-2-(4-(4-methylpiperazin-1-yl)piperidin-1-yl)phenyl)acrylamide]: the IC50 is < 10 nM in assay [3], 10 to 100 nM in assay [4], < 10 nM in assay [5] and 10 to 50 nM in assay [2] (setting [7]).
With `C=CC(=O)Nc1cc(Nc2ncc(Cl)c(Nc3ccccc3P(C)(C)=O)n2)c(OC)cc1N(C)CCN(C)C` [Compound 25, N-(5-((5-chloro-4-((2-(dimethylphosphoryl)phenyl)amino)pyrimidin-2-yl)amino)-2-((2-(dimethylamino)ethyl)(methyl)amino)-4-methoxyphenyl)acrylamide], the IC50 in assay [2] (setting [7]) is < 10 nM.
As to `C=CC(=O)Nc1cc(Nc2ncc(Cl)c(Nc3ccccc3P(C)(C)=O)n2)c(OC)cc1N1CC2(CCC(N(C)C)CC2)C1` [Compound 26, N-(5-((5-chloro-4-((2-(dimethylphosphoryl)phenyl)amino)pyrimidin-2-yl)amino)-2-(7-(dimethylamino)-2-azaspiro[3.5]nonan-2-yl)-4-methoxyphenyl)acrylamide], the values for the IC50 in assay [3], in assay [4] and in assay [5] were < 10 nM, 10 to 100 nM and < 10 nM, respectively.
Take `C=CC(=O)Nc1cc(Nc2ncc(F)c(Nc3ccccc3P(C)(C)=O)n2)c(OC)cc1N(C)CCN(C)C` [Compound 27, N-(2-((2-(dimethylamino)ethyl)(methyl)amino)-5-((4-((2-(dimethylphosphoryl)phenyl)amino)-5-fluoropyrimidin-2-yl)amino)-4-methoxyphenyl)acrylamide]: the IC50 in assay [1] (setting [6]) and in assay [2] (setting [7]) was < 10 nM each time.
Regarding `C=CC(=O)Nc1cc(Nc2ncc(F)c(Nc3ccccc3P(C)(C)=O)n2)c(OC)cc1N1CCC(N2CCN(C)CC2)CC1` [Compound 28, N-(5-((4-((2-(dimethylphosphoryl)phenyl)amino)-5-fluoropyrimidin-2-yl)amino)-4-methoxy-2-(4-(4-methylpiperazin-1-yl)piperidin-1-yl)phenyl)acrylamide], the IC50 was in the range of 10 to 100 nM in assay [3], 10 to 100 nM in assay [4], 10 to 100 nM in assay [5] and 10 to 50 nM in assay [2] (setting [7]).
As for `C=CC(=O)Nc1cc(Nc2ncc(Cl)c(Nc3ccccc3P(C)(C)=O)n2)c(C)cc1N1CCC2(CC1)CC(N(C)C)C2` [Compound 31, N-(5-((5-chloro-4-((2-(dimethylphosphoryl)phenyl)amino)pyrimidin-2-yl)amino)-2-(2-(dimethylamino)-7-azaspiro[3.5]nonan-7-yl)-4-methylphenyl)acrylamide], the IC50 in assay [1] (setting [6]) and in assay [2] (setting [7]) was 10 to 50 nM in each case.
For `C=CC(=O)Nc1cc(Nc2nccc(Nc3ccccc3P(C)(C)=O)n2)ccc1N1CCC(N2CCN(C)CC2)CC1` [Compound 38, N-(5-((4-((2-(dimethylphosphoryl)phenyl)amino)pyrimidin-2-yl)amino)-2-(4-(4-methylpiperazin-1-yl)piperidin-1-yl)phenyl)acrylamide], the IC50 in assay [3], in assay [4] and in assay [5] was 10 to 100 nM throughout.
On to `C=CC(=O)Nc1cc(Nc2nccc(Nc3ccccc3P(C)(C)=O)n2)c(OC)cc1N(C)CCN(C)C` [Compound 39, N-(2-((2-(dimethylamino)ethyl)(methyl)amino)-5-((4-((2-(dimethylphosphoryl)phenyl)amino)pyrimidin-2-yl)amino)-4-methoxyphenyl)acrylamide], for which the IC50 in assay [1] (setting [6]) is 10 to 50 nM; in assay [2] (setting [7]), < 10 nM.
On to `C=CC(=O)Nc1cc(Nc2nccc(Nc3ccccc3P(C)(C)=O)n2)c(OC)cc1N1CCC(N2CCN(C)CC2)CC1` [Compound 40, N-(5-((4-((2-(dimethylphosphoryl)phenyl)amino)pyrimidin-2-yl)amino)-4-methoxy-2-(4-(4-methylpiperazin-1-yl)piperidin-1-yl)phenyl)acrylamide], for which the IC50 in assay [3], in assay [4] and in assay [5] was 10 to 100 nM throughout.
